Measurements from patent US20230285411A1, “DRUG FORMULATION CONTAINING SEPETAPROST” (SANTEN PHARMACEUTICAL CO., LTD., priority 2020, published 2023).

How the values were obtained:
Type in all cases: in vivo, cynomolgus monkey
[1] = system: cynomolgus monkeys (monkeys with normal intraocular pressure), selected monkeys with an inadequate response to latanoprost; assay: Selection of monkeys with inadequate response to latanoprost: intraocular pressure after single latanoprost eye drop; settings: for intraocular pressure change value: 0.005% (w/v) eye drop, 20 μL/eye once, 7 selected monkeys
Method: 1. Selection of monkeys with inadequate response to latanoprost Latanoprost eye drop was administered to cynomolgus monkeys (monkeys with normal intraocular pressure) and each individual animal was examined for responsiveness to latanoprost to select monkeys with an inadequate response to latanoprost.
(§1) (Eye Drop) • Latanoprost eye drop: Xalatan® Eye Drops 0.005% (w/v) (Pfizer Japan Inc.)
(Test Animals) • Cynomolgus monkeys: 32 animals (Sex/male)
(§2) <Methods for Administration and Measurement> • (1) An intraocular pressure was measured immediately before administering the test eye drop and was defined as the pre-administration intraocular pressure value (0 hour). • (2) The test eye drop was administered once (20 μL/eye) to one eye (right eye) of the test animals using a PIPETMAN. The contralateral eye was untreated. • (3) An intraocular pressure was measured at 2, 4, and 6 hours after the administration. The intraocular pressure was measured three times for each to calculate its average value. An intraocular pressure change value (mmHg) was calculated as the difference from the pre-administration intraocular pressure value (0 hour) at each measurement time point.
The test was conducted as a crossover study. A physiological saline solution was administered as a test eye drop to a control group. Two series of administering the latanoprost eye drop were conducted and designated as a latanoprost (first time) group and a latanoprost (second time) group, respectively.

[2] = system: monkeys with an inadequate response to latanoprost; assay: Test for effect of latanoprost on lowering intraocular pressure in monkeys with inadequate response to latanoprost; settings: for intraocular pressure change value: 20 μL/eye once
Method: Latanoprost eye drop was administered to the monkeys with an inadequate response to latanoprost, and its effect on lowering the intraocular pressure at 10 and 12 hours after the administration was evaluated.
as §1
(§3) (Test Animals) • Cynomolgus monkeys: 7 animals (sex: male) selected in “1. Selection of monkeys with inadequate response to latanoprost”
as §2, with “10” for “2, 4,”, “12” for “6”

[3] = system: monkeys with an inadequate response to latanoprost; assay: Test for effect of sepetaprost on lowering intraocular pressure in monkeys with inadequate response to latanoprost; settings: for intraocular pressure lowering action: 10 and 12 hours after the administration, in words; for intraocular pressure lowering width / intraocular pressure change value: 0.002% (w/v) eye drop; for intraocular pressure change value: 20 μL/eye once
Method: Sepetaprost eye drop was administered to monkeys with an inadequate response to latanoprost, and its effect on lowering the intraocular pressure at 10 and 12 hours after the administration was evaluated.
(Eye Drop) • Sepetaprost eye drop: Sepetaprost was dissolved in a base, and then, a sepetaprost eye drop with a concentration of 0.002% (w/v) was prepared by using a commonly used method.
as §3
as §2, with “[…].” for “PIPETMAN.”, “10” for “2, 4,”, “12” for “6”
The test was conducted as a crossover study. The above-mentioned base was administered as a test eye drop to a control group. Two series of administering the sepetaprost eye drop were conducted and designated as a sepetaprost (first time) group and a sepetaprost (second time) group, respectively.

[4] = 12 hours after administration, 0.005% (w/v) eye drop
[5] = first time group, 10 hours after administration
[6] = first time group, 12 hours after administration
[7] = second time group, 10 hours after administration
[8] = second time group, 12 hours after administration

SMILES: CC(C)OC(=O)CCC/C=C\C[C@@H]1[C@@H](CC[C@@H](O)CCc2ccccc2)[C@H](O)C[C@@H]1O [Latanoprost, latanoprost]
- change over time in the intraocular pressure ([1]; first time and second time groups, up to 6 hours after the administration, in words): little change over time
- intraocular pressure change value ([1]; first time group, 2 hours after administration): 1.0 mmHg
- intraocular pressure change value ([1]; first time group, 4 hours after administration): −0.2 mmHg
- intraocular pressure change value ([1]; first time group, 6 hours after administration): −0.6 mmHg
- intraocular pressure change value ([1]; second time group, 2 hours after administration): 0.4 mmHg
- intraocular pressure change value ([1]; second time group, 4 hours after administration): 0.0 mmHg
- intraocular pressure change value ([1]; second time group, 6 hours after administration): −0.1 mmHg
- intraocular pressure change value ([2]; 10 hours after administration, 0.005% (w/v) eye drop): −0.5 mmHg
- intraocular pressure lowering width [2, 4]: 1.2 mmHg
- intraocular pressure change value [2, 4]: −1.2 mmHg
- intraocular pressure lowering effect ([2]; up to 12 hours after the administration, in words): inadequate

SMILES: CC(C)OC(=O)CCC[C@H]1CC[C@@H]2[C@@H](/C=C/[C@@H](O)COc3cc(F)ccc3F)[C@H](O)C[C@@H]2OC1 [Sepetaprost, 2-propanyl 4-{(3S,5aR,6R,7R,8aS)-6-[(1E,3R)-4-(2,5-difluorophenoxy)-3-hydroxy-1-buten-1-yl]-7-hydroxyoctahydro-2H-cyclopenta[b]oxepin-3-yl}butanoate]
- intraocular pressure lowering action [3]: adequate
- intraocular pressure lowering action ([3]; listed as sepetaprost eye drop): significant
- intraocular pressure lowering width [3, 5]: 3.1 mmHg
- intraocular pressure change value [3, 5]: −3.1 mmHg
- intraocular pressure lowering width [3, 6]: 3.3 mmHg
- intraocular pressure change value [3, 6]: −3.3 mmHg
- intraocular pressure lowering width [3, 7]: 2.6 mmHg
- intraocular pressure change value [3, 7]: −2.6 mmHg
- intraocular pressure lowering width [3, 8]: 3.4 mmHg
- intraocular pressure change value [3, 8]: −3.4 mmHg
